In this assay the target is T1, ΔF508-CFTR (Homo sapiens, UniProt P13569, DEL508-508).
T1 construct: host or cells: CFBE41o-, doxycycline-inducible
The assay can be described thus: CFTR cell surface levels using HRP-tagged ΔF508-CFTR expressing CFBE cells, in the presence of a co-corrector. Type of assay: cell-based. To be noted: HRP-tagged ΔF508-CFTR expressing CFBE cells, in the presence of 3 μM co-corrector; for EC50: read-out: EC50. The text has this:
Measuring CFTR Cell Surface Levels Using HRP-Tagged AF508-CFTR Expressing CFBE Cells
The HRP-tagged AF508-CFTR cell assay measures the expression of CFTR-ΔF508 at the plasma membrane. CFTR-ΔF508 has a folding defect leading to absence of protein at the plasma membrane. This assay is used to evaluate the capacity of compounds to increase the expression of CFTR-ΔF508 at the plasma membrane. The CFTR-ΔF508 is tagged with HRP (horse radish peroxidase enzyme) within the ECL4 (Extracellular loop 4) of CFTR (Phuan, P.-W. et al. Synergy-based small-molecule screen using a human lung epithelial cell line yields AF508-CFTR correctors that augment VX-809 maximal efficacy. Mol. Pharmacol. 86, 42-51 (2014)). When HRP-tagged AF508-CFTR is present at the plasma membrane, the HRP enzyme activity can be measured. The amount of CFTR-ΔF508 that can be rescued to the plasma membrane is correlated with the amount of functional enzyme that can be measured.
There are several ways to measure the capacity of compounds to rescue CFTR-ΔF508 to the plasma membrane; either compounds are evaluated on their own and the impact on plasma membrane levels is measured or compounds are evaluated in combination with a co-corrector, i.e. a compound that rescues CFTR-ΔF508 to the plasma membrane but rescue can be enhanced by addition of compounds due to a complementary mode of action.
Activity of Compounds in Combination with Co-Corrector:
For this purpose doxycycline-inducible AF508-CFTR-HRP expressing CFBE4lo-cells (obtained from Gergely Lukacs, McGill University) were maintained in MEM (Minimum Essential Medium, Gibco; 31095) supplemented with 10% fetal bovine serum (Hyclone; SV30160.03) under puromycin (3 μg/mL) and G418 selection (0.2 mg/mL). For compound testing, cells were seeded at 4000 cells/well in white 384-well plates (Greiner; 781080) in 50 μL of medium containing 0.5 μg/mL doxycycline and incubated for 68 hours at 37° C., 5% CO2. On day four, 10 μL of test compounds diluted in PBS (phosphate buffered saline) were added to the plates at a final DMSO concentration of 0.1%. In order to measure compound synergy with a co-corrector, 3 μM co-corrector (3-[(2R,4R)-4-({[1-(2,2-difluoro-1,3-benzodioxol-5-yl)cyclopropyl]carbonyl}amino)-7-methoxy-3,4-dihydro-2H-chromen-2-yl]benzoic acid) was added along with test compounds. All compound plates contained negative controls (DMSO) and positive controls (3 μM co-corrector). Cell plates were incubated at 33° C., 5% CO2 for 20 hours. On day five, the cells were washed five times with phosphate-buffered saline, and HRP activity was assayed by the addition of 50 μL/well of HRP substrate (SuperSignal™ West Pico Chemiluminescent Substrate, Thermo Scientific; 34080). After incubation for 15 minutes in the dark, the chemiluminescence was measured using a plate reader (EnVision®, Perkin Elmer). Raw data were normalized to percentage activity values using the equation: 100×(Sample−Negative control)/(Positive control−Negative Control).

The EC50 is the concentration at which the effect is half-maximal.

T1 sequence (P13569 with tags, fused parts or gaps DEL508-508): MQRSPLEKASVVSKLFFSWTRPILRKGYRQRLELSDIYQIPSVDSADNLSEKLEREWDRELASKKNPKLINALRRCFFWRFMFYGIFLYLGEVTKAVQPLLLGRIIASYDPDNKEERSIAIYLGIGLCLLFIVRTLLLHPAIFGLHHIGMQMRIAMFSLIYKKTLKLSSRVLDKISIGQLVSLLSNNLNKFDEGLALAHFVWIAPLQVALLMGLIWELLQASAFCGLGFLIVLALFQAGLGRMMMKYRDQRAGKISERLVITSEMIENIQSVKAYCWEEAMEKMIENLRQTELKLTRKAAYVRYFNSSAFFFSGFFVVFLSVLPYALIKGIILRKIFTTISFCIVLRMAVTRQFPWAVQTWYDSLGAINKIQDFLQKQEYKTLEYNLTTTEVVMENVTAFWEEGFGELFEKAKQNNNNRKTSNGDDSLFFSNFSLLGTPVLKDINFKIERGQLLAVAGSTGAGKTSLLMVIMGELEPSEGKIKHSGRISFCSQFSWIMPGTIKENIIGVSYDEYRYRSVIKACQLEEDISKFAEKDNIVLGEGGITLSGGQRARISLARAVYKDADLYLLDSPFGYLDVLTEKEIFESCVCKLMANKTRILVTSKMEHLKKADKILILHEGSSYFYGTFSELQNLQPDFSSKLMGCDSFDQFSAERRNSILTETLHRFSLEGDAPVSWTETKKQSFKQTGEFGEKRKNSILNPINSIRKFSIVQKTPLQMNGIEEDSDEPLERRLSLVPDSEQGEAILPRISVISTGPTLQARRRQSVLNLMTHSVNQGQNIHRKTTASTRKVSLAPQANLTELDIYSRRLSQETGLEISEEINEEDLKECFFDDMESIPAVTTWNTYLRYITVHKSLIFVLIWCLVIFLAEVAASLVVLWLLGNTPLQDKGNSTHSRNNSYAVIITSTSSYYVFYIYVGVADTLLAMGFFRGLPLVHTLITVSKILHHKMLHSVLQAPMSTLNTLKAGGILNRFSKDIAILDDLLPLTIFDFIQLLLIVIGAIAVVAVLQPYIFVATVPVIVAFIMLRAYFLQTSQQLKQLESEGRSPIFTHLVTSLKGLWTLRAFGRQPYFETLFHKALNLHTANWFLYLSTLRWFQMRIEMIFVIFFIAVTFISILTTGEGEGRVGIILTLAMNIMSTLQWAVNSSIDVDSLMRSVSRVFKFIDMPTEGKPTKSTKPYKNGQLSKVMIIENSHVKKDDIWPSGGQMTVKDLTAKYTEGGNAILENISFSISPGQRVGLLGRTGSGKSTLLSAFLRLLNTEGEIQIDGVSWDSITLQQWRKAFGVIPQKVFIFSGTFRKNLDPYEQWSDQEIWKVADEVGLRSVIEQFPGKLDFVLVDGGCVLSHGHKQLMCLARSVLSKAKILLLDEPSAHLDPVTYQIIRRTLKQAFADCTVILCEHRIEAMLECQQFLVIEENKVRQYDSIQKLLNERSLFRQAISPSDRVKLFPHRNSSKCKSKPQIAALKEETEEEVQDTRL

As for `CCCCN1CCCN(c2cc(C(=O)O)nc3c2c(C2CCC2)nn3-c2ccccc2)CC1` [compound 710, 4-(4-butyl-1,4-diazepan-1-yl)-3-cyclobutyl-1-phenyl-1H-pyrazolo[3,4-b]pyridine-6-carboxylic acid], the “% Activation” value is listed as 282.6% and the EC50 was found to be 1350 nM.

Consider `O=C(O)c1cc(N2CCC(CN3CCCC3)CC2)c2c(C3CCC3)nn(-c3ccc(F)cc3)c2n1` [compound 888, 3-cyclobutyl-1-(4-fluorophenyl)-4-{4-[(pyrrolidin-1-yl)methyl]piperidin-1-yl}-1H-pyrazolo[3,4-b]pyridine-6-carboxylic acid], for which the “% Activation” value was found to be 430% and the EC50 worked out at 333 nM.

Turning to `O=C(O)c1cc(N2CCC(N3CCCC(C(=O)N4CCOCC4)C3)CC2)c2c(C3CCC3)nn(-c3ccccc3)c2n1` (centres unmarked) [compound 711, 3-cyclobutyl-4-[3-(morpholine-4-carbonyl)[1,4′-bipiperidin]-1′-yl]-1-phenyl-1H-pyrazolo[3,4-b]pyridine-6-carboxylic acid], the “% Activation” value was 248.8% and the EC50 was determined as 1110 nM.

Consider `COCCOCCOc1cc(C(=O)O)nc2c1c(C1CCC1)nn2-c1ccccc1` [compound 586, 3-cyclobutyl-4-[2-(2-methoxyethoxy)ethoxy]-1-phenyl-1H-pyrazolo[3,4-b]pyridine-6-carboxylic acid], for which the “% Activation” value came to 322.2% and the EC50 is 2000 nM.

On to `Cc1nn(-c2ccccc2)c2nc(C(=O)O)cc(-c3ccc(N4CCC(O)CC4)cc3)c12` [compound 144, 4-[4-(4-hydroxypiperidin-1-yl)phenyl]-3-methyl-1-phenyl-1H-pyrazolo[3,4-b]pyridine-6-carboxylic acid], for which the “% Activation” value turned out to be 338.4% and the EC50 turned out to be 2620 nM.

As to `O=C(O)c1cc(N2CC(N3CCC(N4CCOCC4)CC3)C2)c2c(C3CCC3)nn(-c3ccccc3)c2n1` [compound 725, 3-cyclobutyl-4-{3-[4-(morpholin-4-yl)piperidin-1-yl]azetidin-1-yl}-1-phenyl-1H-pyrazolo[3,4-b]pyridine-6-carboxylic acid], the “% Activation” value is reported as 173.2% and the EC50 amounted to 869 nM.

For `CN(C)C(=O)C1(N2CCCC2=O)CCN(c2cc(C(=O)O)nc3c2c(C2CCC2)nn3-c2ccccc2)CC1` [compound 718, 3-cyclobutyl-4-[4-(dimethylcarbamoyl)-4-(2-oxopyrrolidin-1-yl)piperidin-1-yl]-1-phenyl-1H-pyrazolo[3,4-b]pyridine-6-carboxylic acid], the “% Activation” value came to 209.8% and the EC50 is 1670 nM.

Take `Cc1nn(-c2ccccc2)c2nc(C(=O)O)cc(-c3ccc(N4CCOCC4)cc3)c12` [compound 1, 3-methyl-4-[4-(morpholin-4-yl)phenyl]-1-phenyl-1H-pyrazolo[3,4-b]pyridine-6-carboxylic acid]: the “% Activation” value is given as 354.48% and the EC50 is 1040 nM.

As to `CC(C)c1nn(C2CCCCC2)c2nc(C(=O)O)cc(N3CCC(C#N)CC3)c12` [compound 263, 4-(4-cyanopiperidin-1-yl)-1-cyclohexyl-3-(propan-2-yl)-1H-pyrazolo[3,4-b]pyridine-6-carboxylic acid], the “% Activation” value was 334.25% and the EC50 came to 1130 nM.

Take `C[C@@H]1CN(c2cc(C(=O)O)nc3c2c(C2CCC2)nn3C2CCCCC2)CCN1Cc1ccccc1` [compound 882, 4-[(3R)-4-benzyl-3-methylpiperazin-1-yl]-3-cyclobutyl-1-cyclohexyl-1H-pyrazolo[3,4-b]pyridine-6-carboxylic acid]: the “% Activation” value is 363.85% and the EC50 is 372 nM.

Regarding `O=C(O)c1cc(N2CCC(OCCN3CCCCC3)CC2)c2c(C3CCC3)nn(-c3ccccc3)c2n1` [compound 730, 3-cyclobutyl-1-phenyl-4-{4-[2-(piperidin-1-yl)ethoxy]piperidin-1-yl}-1H-pyrazolo[3,4-b]pyridine-6-carboxylic acid], the “% Activation” value was 418.7% and the EC50 is 71.5 nM.

As to `COc1cc(-n2nc(C3CCC3)c3c(N4CCC(N5CCOCC5)CC4)cc(C(=O)O)nc32)ccn1` [compound 816, 3-cyclobutyl-1-(2-methoxypyridin-4-yl)-4-[4-(morpholin-4-yl)piperidin-1-yl]-1H-pyrazolo[3,4-b]pyridine-6-carboxylic acid], the “% Activation” value stood at 359.9% and the EC50 worked out at 67.6 nM.

For the molecule `CN1CCCC(CN(C)c2cc(C(=O)O)nc3c2c(C2CCC2)nn3-c2ccccc2)C1` (centres unmarked) [compound 593, 3-cyclobutyl-4-{methyl [(1-methylpiperidin-3-yl)methyl]amino}-1-phenyl-1H-pyrazolo[3,4-b]pyridine-6-carboxylic acid], the “% Activation” value is on record as 313.3% and the EC50 was 1170 nM.

For `CC(C)c1nn(-c2ccc(F)cc2)c2nc(C(=O)O)cc(N3CC(N4CCC(N5CCOCC5)CC4)C3)c12` [compound 759, 1-(4-fluorophenyl)-4-{3-[4-(morpholin-4-yl)piperidin-1-yl]azetidin-1-yl}-3-(propan-2-yl)-1H-pyrazolo[3,4-b]pyridine-6-carboxylic acid], the “% Activation” value stood at 207% and the EC50 came to 1670 nM.

Take `COCc1nn(-c2ccccc2)c2nc(C(=O)O)cc(-c3ccc(N4CCOCC4)cc3)c12` [compound 122, 3-(methoxymethyl)-4-[4-(morpholin-4-yl)phenyl]-1-phenyl-1H-pyrazolo[3,4-b]pyridine-6-carboxylic acid]: the “% Activation” value worked out at 311.75% and the EC50 came out at 1770 nM.

Regarding `CCN(C1CCN(c2cc(C(=O)O)nc3c2c(C2CCC2)nn3-c2ccccc2)CC1)C1COC1` [compound 734, 3-cyclobutyl-4-{4-[ethyl(oxetan-3-yl)amino]piperidin-1-yl}-1-phenyl-1H-pyrazolo[3,4-b]pyridine-6-carboxylic acid], the “% Activation” value came to 415% and the EC50 turned out to be 244 nM.

For `CN1CCN(CCC2CCN(c3cc(C(=O)O)nc4c3c(C3CCC3)nn4-c3ccccc3)CC2)CC1` [compound 695, 3-cyclobutyl-4-{4-[2-(4-methylpiperazin-1-yl)ethyl]piperidin-1-yl}-1-phenyl-1H-pyrazolo[3,4-b]pyridine-6-carboxylic acid], the “% Activation” value is 385.5% and the EC50 came to 119 nM.

In the case of `Cc1nn(C2CCCCC2)c2nc(C(=O)O)cc(-c3ccc(N4CCOCC4)cc3)c12` [compound 17, 1-cyclohexyl-3-methyl-4-[4-(morpholin-4-yl)phenyl]-1H-pyrazolo[3,4-b]pyridine-6-carboxylic acid], the “% Activation” value worked out at 272.5% and the EC50 was found to be 1140 nM.

Regarding `CNC(=O)CN1CCN(c2cc(C(=O)O)nc3c2c(C2CCC2)nn3-c2ccccc2)CC1` [compound 569, 3-cyclobutyl-4-{4-[2-(methylamino)-2-oxoethyl]piperazin-1-yl}-1-phenyl-1H-pyrazolo[3,4-b]pyridine-6-carboxylic acid], the “% Activation” value was 259.37% and the EC50 amounted to 3060 nM.

As for `O=C(O)c1cc(OC2CCCC2)c2c(C3CCC3)nn(-c3ccccc3)c2n1` [compound 597, 3-cyclobutyl-4-(cyclopentyloxy)-1-phenyl-1H-pyrazolo[3,4-b]pyridine-6-carboxylic acid], the “% Activation” value is on record as 342.5% and the EC50 came out at 230 nM.

As to `CCN(CC)CCCC1CCN(c2cc(C(=O)O)nc3c2c(C(C)C)nn3-c2ccc(F)cc2)CC1` [compound 747, 4-{4-[3-(diethylamino)propyl]piperidin-1-yl}-1-(4-fluorophenyl)-3-(propan-2-yl)-1H-pyrazolo[3,4-b]pyridine-6-carboxylic acid], the “% Activation” value was 475.3% and the EC50 amounted to 1670 nM.

As to `N#CCC1(O)CCN(c2cc(C(=O)O)nc3c2c(C2CCC2)nn3-c2ccccc2)CC1` [compound 665, 4-[4-(cyanomethyl)-4-hydroxypiperidin-1-yl]-3-cyclobutyl-1-phenyl-1H-pyrazolo[3,4-b]pyridine-6-carboxylic acid], the “% Activation” value amounted to 330.43% and the EC50 turned out to be 1860 nM.

Source of the values: US9796711B2, “Substituted pyrazolo[3,4-b]pyridin-6-carboxylic acids and method of use” (AbbVie S.àr.l., priority 2015, dated 2017).
